Source: PMC3034256 (Chemistry & biology, 2011)

Assays:
Jurkat T cells [1] = assay: TCR-mediated ERK1/2 activation in Jurkat T cells; assay type: cell-based; details: 2 h pretreatment (2 µM), 10 µg/mL anti-CD3
panel of PTPs = assay: Screen against a panel of PTPs at 10 µM; assay type: biochemical; details: 10 µM compound, pNPP, pH 7, 25 °C
Jurkat T cells [2] = assay: TCR-mediated tyrosine phosphorylation in Jurkat T cells; assay type: cell-based; details: 2 h pretreatment (2 µM; TTN 2–4 µM), 10 µg/mL anti-CD3

CO[C@H]([C@H](O)CC(=O)[C@@H](C)[C@@H](O)CC[C@@H](C)[C@@H]1O[C@]2(CC[C@@H](C)[C@H](CC[C@H](C)C(C)=O)O2)CC[C@@H]1C)[C@H](OC(=O)C[C@@H](O)C1=C(C)C(=O)OC1=O)C(C)C [TTM, tautomycin, reference compound]
effect on TCR-mediated ERK1/2 activation (Jurkat T cells [1]): no appreciable change | inhibitory activity against the panel of PTPs (panel of PTPs): neither TTM nor its analogs exhibited any inhibitory activity | effect on TCR-mediated tyrosine phosphorylation (Jurkat T cells [2]): had no effect
